Reference: the NIST ThermoML archive (doi:10.1016/j.jct.2005.11.003)
Numbers after ± are expanded uncertainties.

Experiments:
[1] = excess molar enthalpy (molar enthalpy of mixing); xn = mol fraction of the nth substance listed; conditions: 298.15 K, 101 kPa, Liquid
[2] = xn = mol fraction of the nth substance listed; conditions: 298.15 K, 101 kPa, Liquid
[3] = refractive index (Na D-line) (dimensionless); conditions: 298.15 K; 101.33 kPa; Liquid
[4] = 298.15 K; 101.33 kPa; Liquid

ClCCCCCCCl [1,6-dichlorohexane] + CCCCOC=O
Conditions | excess molar enthalpy [kcal/mol] | mass density [kg/m3]
[1], x2 = 0.0701 | 0.0129 ± 0.00115 | –
[1], x2 = 0.1508 | 0.0227 ± 0.00143 | –
[1], x2 = 0.2299 | 0.0298 ± 0.00167 | –
[1], x2 = 0.3026 | 0.0332 ± 0.00177 | –
[1], x2 = 0.371 | 0.0338 ± 0.00179 | –
[1], x2 = 0.434 | 0.0322 ± 0.00174 | –
[1], x2 = 0.491 | 0.0291 ± 0.00165 | –
[1], x2 = 0.5401 | 0.0255 ± 0.00153 | –
[1], x2 = 0.5778 | 0.0221 ± 0.00143 | –
[1], x2 = 0.6131 | 0.02 ± 0.00136 | –
[1], x2 = 0.6659 | 0.0173 ± 0.00127 | –
[1], x2 = 0.7195 | 0.016 ± 0.00124 | –
[1], x2 = 0.7775 | 0.0137 ± 0.00117 | –
[1], x2 = 0.8372 | 0.0105 ± 0.00108 | –
[1], x2 = 0.8968 | 0.00693 ± 0.000956 | –
[1], x2 = 0.9528 | 0.00313 ± 0.000837 | –
[2], x2 = 0.0782 | – | 1052.81 ± 1.1
[2], x2 = 0.1483 | – | 1042.74 ± 1.2
[2], x2 = 0.2157 | – | 1032.73 ± 1.2
[2], x2 = 0.2827 | – | 1022.46 ± 1.2
[2], x2 = 0.3478 | – | 1012.18 ± 1.2
[2], x2 = 0.4104 | – | 1002.02 ± 1.2
[2], x2 = 0.5319 | – | 981.37 ± 1.3
[2], x2 = 0.5893 | – | 971.18 ± 1.3
[2], x2 = 0.6457 | – | 960.88 ± 1.3
[2], x2 = 0.7539 | – | 940.28 ± 1.4
[2], x2 = 0.8053 | – | 930.03 ± 1.4
[2], x2 = 0.9044 | – | 909.61 ± 1.4
[2], x2 = 0.9513 | – | 899.53 ± 1.4

CCCCOC(=O)CC [butyl propanoate]
Conditions | mass density [kg/m3] | refractive index
[3] | – | 1.399 ± 0.001
[4] | 871.08 ± 0.96 | –

CCCCOC(=O)CC [butyl propanoate] + ClCCCl
[2]
Conditions | mass density [kg/m3]
x1 = 0.0334 | 1222.24 ± 0.57
x1 = 0.0679 | 1199.39 ± 0.55
x1 = 0.1032 | 1177.4 ± 0.52
x1 = 0.1419 | 1154.78 ± 0.5
x1 = 0.1821 | 1132.96 ± 0.48
x1 = 0.2255 | 1110.88 ± 0.46
x1 = 0.2719 | 1088.82 ± 0.44
x1 = 0.3218 | 1066.84 ± 0.43
x1 = 0.3754 | 1044.9 ± 0.41
x1 = 0.4321 | 1023.34 ± 0.4
x1 = 0.4959 | 1001.02 ± 0.4
x1 = 0.5617 | 979.72 ± 0.42
x1 = 0.636 | 957.49 ± 0.44
x1 = 0.7142 | 936.1 ± 0.46
x1 = 0.804 | 913.62 ± 0.49
x1 = 0.8938 | 893.14 ± 0.52

CCCCOC=O [butyl methanoate] + ClCCCl
Conditions | excess molar enthalpy [kcal/mol] | mass density [kg/m3]
[1], x1 = 0.0384 | 0.00172 ± 0.000789 | –
[1], x1 = 0.0884 | 0.000765 ± 0.000765 | –
[1], x1 = 0.1406 | -0.00378 ± 0.00086 | –
[1], x1 = 0.2002 | -0.0103 ± 0.00105 | –
[1], x1 = 0.254 | -0.018 ± 0.00129 | –
[1], x1 = 0.3052 | -0.026 ± 0.00155 | –
[1], x1 = 0.35 | -0.0329 ± 0.00177 | –
[1], x1 = 0.3874 | -0.0387 ± 0.00194 | –
[1], x1 = 0.4396 | -0.0436 ± 0.0021 | –
[1], x1 = 0.4751 | -0.0469 ± 0.0022 | –
[1], x1 = 0.5277 | -0.049 ± 0.00225 | –
[1], x1 = 0.5938 | -0.0454 ± 0.00215 | –
[1], x1 = 0.6645 | -0.0433 ± 0.00208 | –
[1], x1 = 0.741 | -0.0382 ± 0.00194 | –
[1], x1 = 0.8303 | -0.029 ± 0.00165 | –
[1], x1 = 0.9138 | -0.0176 ± 0.00129 | –
[2], x1 = 0.0423 | – | 1223.68 ± 0.61
[2], x1 = 0.0859 | – | 1202 ± 0.62
[2], x1 = 0.1303 | – | 1180.75 ± 0.64
[2], x1 = 0.1772 | – | 1159.35 ± 0.67
[2], x1 = 0.2251 | – | 1138.25 ± 0.7
[2], x1 = 0.2748 | – | 1117.45 ± 0.74
[2], x1 = 0.3271 | – | 1096.31 ± 0.78
[2], x1 = 0.382 | – | 1075.28 ± 0.83
[2], x1 = 0.4376 | – | 1054.83 ± 0.88
[2], x1 = 0.497 | – | 1034.05 ± 0.93
[2], x1 = 0.5604 | – | 1012.84 ± 0.99
[2], x1 = 0.6255 | – | 992.02 ± 1.1
[2], x1 = 0.6925 | – | 971.62 ± 1.1
[2], x1 = 0.7638 | – | 950.97 ± 1.2
[2], x1 = 0.8379 | – | 930.45 ± 1.3
[2], x1 = 0.9173 | – | 909.53 ± 1.3

ClCCCCCCCl [1,6-dichlorohexane] + CCCCOC(C)=O
[2]
Conditions | mass density [kg/m3]
x2 = 0.0673 | 1052.28 ± 1.1
x2 = 0.1308 | 1041.35 ± 1
x2 = 0.1929 | 1030.53 ± 1
x2 = 0.2552 | 1019.5 ± 0.99
x2 = 0.3164 | 1008.57 ± 0.96
x2 = 0.3768 | 997.63 ± 0.93
x2 = 0.4368 | 986.64 ± 0.91
x2 = 0.4966 | 975.54 ± 0.89
x2 = 0.554 | 964.77 ± 0.87
x2 = 0.6113 | 953.89 ± 0.85
x2 = 0.6692 | 942.75 ± 0.83
x2 = 0.7252 | 931.87 ± 0.81
x2 = 0.7823 | 920.59 ± 0.79
x2 = 0.8912 | 898.78 ± 0.76
x2 = 0.9466 | 887.47 ± 0.75

CCCCOC(C)=O [butyl ethanoate]
Conditions | mass density [kg/m3] | refractive index
[3] | – | 1.3918 ± 0.001
[4] | 876.4 ± 1.1 | –

CCCCOC=O [butyl methanoate]
Conditions | mass density [kg/m3] | refractive index
[3] | – | 1.387 ± 0.0012
[4] | 888.17 ± 1.6 | –

CCCCOC(=O)CCC [butyl butanoate]
Conditions | mass density [kg/m3] | refractive index
[3] | – | 1.404 ± 0.001
[4] | 864.84 ± 0.98 | –

ClCCCCCCl [1,5-dichloropentane] + CCCCOC(=O)CC
[2]
Conditions | mass density [kg/m3]
x2 = 0.0528 | 1081.66 ± 0.6
x2 = 0.1047 | 1068.55 ± 0.59
x2 = 0.1575 | 1055.43 ± 0.57
x2 = 0.2116 | 1042.24 ± 0.56
x2 = 0.3217 | 1016.04 ± 0.54
x2 = 0.3799 | 1002.5 ± 0.52
x2 = 0.4359 | 989.71 ± 0.52
x2 = 0.5529 | 963.57 ± 0.52
x2 = 0.6167 | 949.63 ± 0.52
x2 = 0.6773 | 936.67 ± 0.52
x2 = 0.7411 | 923.24 ± 0.53
x2 = 0.8045 | 910.15 ± 0.53
x2 = 0.8667 | 897.51 ± 0.54
x2 = 0.9333 | 884.23 ± 0.54

ClCCCCl [1,3-dichloropropane] + CCCCOC(=O)CC
[2]
Conditions | mass density [kg/m3]
x2 = 0.0407 | 1159.66 ± 0.7
x2 = 0.1229 | 1123.34 ± 0.65
x2 = 0.2119 | 1087.43 ± 0.61
x2 = 0.2612 | 1068.85 ± 0.59
x2 = 0.3653 | 1032.69 ± 0.55
x2 = 0.4229 | 1014.17 ± 0.53
x2 = 0.4801 | 996.73 ± 0.52
x2 = 0.5422 | 978.78 ± 0.52
x2 = 0.6802 | 942.1 ± 0.52
x2 = 0.7534 | 924.3 ± 0.53
x2 = 0.9139 | 888.6 ± 0.54

ClCCCCl [1,3-dichloropropane] + CCCCOC=O
Conditions | excess molar enthalpy [kcal/mol] | mass density [kg/m3]
[1], x2 = 0.046 | 0.00296 ± 0.000837 | –
[1], x2 = 0.0992 | 0.00421 ± 0.00086 | –
[1], x2 = 0.1566 | 0.00351 ± 0.00086 | –
[1], x2 = 0.2391 | 0.00153 ± 0.000789 | –
[1], x2 = 0.2953 | -0.00098 ± 0.000765 | –
[1], x2 = 0.3467 | -0.00392 ± 0.00086 | –
[1], x2 = 0.3972 | -0.00822 ± 0.001 | –
[1], x2 = 0.4442 | -0.013 ± 0.00115 | –
[1], x2 = 0.4874 | -0.0174 ± 0.00129 | –
[1], x2 = 0.5293 | -0.0205 ± 0.00139 | –
[1], x2 = 0.5696 | -0.0213 ± 0.00141 | –
[1], x2 = 0.6134 | -0.0219 ± 0.00141 | –
[1], x2 = 0.6636 | -0.0217 ± 0.00141 | –
[1], x2 = 0.7143 | -0.0213 ± 0.00141 | –
[1], x2 = 0.7798 | -0.0192 ± 0.00134 | –
[1], x2 = 0.8596 | -0.0142 ± 0.00117 | –
[1], x2 = 0.9334 | -0.00782 ± 0.00098 | –
[2], x2 = 0.0501 | – | 1161.72 ± 0.75
[2], x2 = 0.101 | – | 1144.33 ± 0.78
[2], x2 = 0.1527 | – | 1127.13 ± 0.81
[2], x2 = 0.2078 | – | 1109.19 ± 0.85
[2], x2 = 0.2601 | – | 1092.54 ± 0.89
[2], x2 = 0.3145 | – | 1075.53 ± 0.92
[2], x2 = 0.3712 | – | 1058.26 ± 0.96
[2], x2 = 0.487 | – | 1024.07 ± 1
[2], x2 = 0.6083 | – | 989.86 ± 1.1
[2], x2 = 0.6701 | – | 973.02 ± 1.2
[2], x2 = 0.7342 | – | 955.9 ± 1.2
[2], x2 = 0.7984 | – | 939.11 ± 1.3
[2], x2 = 0.8657 | – | 921.98 ± 1.3
[2], x2 = 0.9315 | – | 905.54 ± 1.4

CCCCOC(=O)CCC [butyl butanoate] + ClCCCCCCCl
[2]
Conditions | mass density [kg/m3]
x1 = 0.0545 | 1051.6 ± 1.1
x1 = 0.1071 | 1040.01 ± 1
x1 = 0.16 | 1028.52 ± 0.98
x1 = 0.2136 | 1017 ± 0.94
x1 = 0.2692 | 1005.25 ± 0.9
x1 = 0.3239 | 993.9 ± 0.86
x1 = 0.3815 | 982.05 ± 0.82
x1 = 0.439 | 970.43 ± 0.79
x1 = 0.5565 | 947.09 ± 0.72
x1 = 0.6826 | 922.79 ± 0.66
x1 = 0.7398 | 911.99 ± 0.64
x1 = 0.803 | 900.24 ± 0.61
x1 = 0.8726 | 887.54 ± 0.59
x1 = 0.9323 | 876.78 ± 0.57

ClCCCCCl [1,4-dichlorobutane] + CCCCOC(C)=O
[2]
Conditions | mass density [kg/m3]
x2 = 0.0529 | 1117.81 ± 0.66
x2 = 0.1035 | 1102.8 ± 0.65
x2 = 0.1569 | 1087.25 ± 0.65
x2 = 0.2092 | 1072.35 ± 0.65
x2 = 0.2638 | 1057.04 ± 0.64
x2 = 0.3207 | 1041.46 ± 0.64
x2 = 0.3754 | 1026.74 ± 0.64
x2 = 0.4326 | 1011.67 ± 0.64
x2 = 0.4906 | 996.66 ± 0.64
x2 = 0.5505 | 981.49 ± 0.65
x2 = 0.6125 | 966.12 ± 0.66
x2 = 0.6735 | 951.29 ± 0.68
x2 = 0.7365 | 936.28 ± 0.69
x2 = 0.8011 | 921.17 ± 0.7
x2 = 0.8692 | 905.6 ± 0.71
x2 = 0.9352 | 890.8 ± 0.73
